Assay results: patent US12577226B2, “Compounds for treating Huntington's disease” (PTC THERAPEUTICS, INC., priority 2019, dated 2026)

Each molecule was assayed on Endogenous Huntingtin Protein (capture with MW1 (expanded polyglutamine) or MAB2166 antibody) (assay: Endogenous Huntingtin Protein Assay (ELISA-based Meso Scale Discovery electrochemiluminescence assay)). Conditions: MSD electrochemiluminescence platform.
Type: cell-based
Summary of the method: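 MSD electrochemiluminescence sandwich immunoassay: plates coated with 1 μg/mL MW1 or MAB2166 capture antibody, samples incubated overnight at 4 °C. Detection with rabbit monoclonal #5656S then SULFO-TAG anti-rabbit (each 0.25 μg/mL, 1 h RT).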
With `C[C@@H]1CN(c2ccc(-c3ncc(-c4cc(F)c5nn(C)cc5c4)cc3O)nn2)CCN1` [Compound 104, 5-(7-fluoro-2-methyl-2H-indazol-5-yl)-2-{6-[(3R)-3-methylpiperazin-1-yl]pyridazin-3-yl}pyridin-3-ol] the IC50 was no more than 100 nM.
`CN[C@@H]1CCN(c2ccc(-c3ncc(-c4cnc(C)o4)cc3O)nn2)C1` [Compound 77, 2-{6-[(3R)-3-(methylamino)pyrrolidin-1-yl]pyridazin-3-yl}-5-(2-methyl-1,3-oxazol-5-yl)pyridin-3-ol] was tested, and the IC50 was no more than 100 nM.
In the case of `CC1(C)CC(Oc2ccc(-c3ncc(-n4nccn4)cc3O)nn2)CC2(CC2)N1` (stereo not shown) [Compound 21, 2-{6-[(5,5-dimethyl-4-azaspiro[2.5]octan-7-yl)oxy]pyridazin-3-yl}-5-(2H-1,2,3-triazol-2-yl)pyridin-3-ol], the IC50 is reported as no more than 100 nM.
Molecule `COc1cc(-c2cnc(-c3cnc(N4CC[C@@H](NC(C)(C)C)C4)nn3)c(O)c2)cc2cn(C)nc12` [Compound 146, 2-{3-[(3R)-3-(tert-butylamino)pyrrolidin-1-yl]-1,2,4-triazin-6-yl}-5-(7-methoxy-2-methyl-2H-indazol-5-yl)pyridin-3-ol] has an IC50 of no more than 100 nM.
`Cn1cc2cc(-c3cnc(-c4ccc(OC5CC(C)(C)NC(C)(C)C5)nn4)c(O)c3)cc(F)c2n1` [Compound 52, 5-(7-fluoro-2-methyl-2H-indazol-5-yl)-2-{6-[(2,2,6,6-tetramethylpiperidin-4-yl)oxy]pyridazin-3-yl}pyridin-3-ol] showed an IC50 of no more than 100 nM.
In the case of “2-(6-{[(3R,4R)-3-fluoro-2,2,6,6-tetramethylpiperidin-4-yl]amino}pyridazin-3-yl)-5-[1-(^2H3)methyl-1H-pyrazol-4-yl]pyridin-3-ol or 2-(6-{[(3S,4S)-3-fluoro-2,2,6,6-tetramethylpiperidin-4-yl]amino}pyridazin-3-yl)-5-[1-(^2H3)methyl-1H-pyrazol-4-yl]pyridin-3-ol [Compound 19]”, the IC50 is reported as no more than 100 nM.
`CC1(C)CC(Oc2ccc(-c3ncc(-n4nccn4)cc3O)nn2)CC(C)(C)N1` [Compound 20, 2-{6-[(2,2,6,6-tetramethylpiperidin-4-yl)oxy]pyridazin-3-yl}-5-(2H-1,2,3-triazol-2-yl)pyridin-3-ol] showed an IC50 of no more than 100 nM.
Work on `Cc1n[nH]cc1CNc1cnc(-c2ccc(N3CCNC(C)C3)nn2)c(O)c1` (stereo not shown) [Compound 108, 2-[6-(3-methylpiperazin-1-yl)pyridazin-3-yl]-5-{[(3-methyl-1H-pyrazol-4-yl)methyl]amino}pyridin-3-ol] yielded an IC50 of 500 to 1000 nM.
With “2-(6-{[(3S,4S)-3-fluoro-2,2,6,6-tetramethylpiperidin-4-yl]amino}pyridazin-3-yl)-5-(1H-pyrazol-3-yl)pyridin-3-ol and 2-(6-{[(3R,4R)-3-fluoro-2,2,6,6-tetramethylpiperidin-4-yl]amino}pyridazin-3-yl)-5-(1H-pyrazol-3-yl)pyridin-3-ol [Compound 16]” the IC50 was no more than 100 nM.
For `CN(c1cnc(-c2ncc(-c3cn[nH]c3)cc2O)nn1)C1CC(C)(C)NC(C)(C)C1` [Compound 162, 2-{6-[methyl(2,2,6,6-tetramethylpiperidin-4-yl)amino]-1,2,4-triazin-3-yl}-5-(1H-pyrazol-4-yl)pyridin-3-ol], the IC50 was no more than 100 nM.
Work on `CC1CN(c2ccc(-c3ncc(Nc4cccnc4)cc3O)nn2)CCN1` (stereo not shown) [Compound 117, 2-[6-(3-methylpiperazin-1-yl)pyridazin-3-yl]-5-[(pyridin-3-yl)amino]pyridin-3-ol] yielded an IC50 of 500 to 1000 nM.
`CC(C)(C)NC1CCN(c2ncc(-c3ncc(-c4cn[nH]c4)cc3O)nn2)C1` (stereo not shown) [Compound 136, 2-{3-[3-(tert-butylamino)pyrrolidin-1-yl]-1,2,4-triazin-6-yl}-5-(1H-pyrazol-4-yl)pyridin-3-ol] gave an IC50 of no more than 100 nM.
Molecule `Cn1ccc(-c2cnc(-c3ccc(O[C@H]4CC(C)(C)NC(C)(C)[C@H]4F)nn3)c(O)c2)n1` (single isomer, unassigned) [Compound 7, 2-(6-{[(3R,4S)-3-fluoro-2,2,6,6-tetramethylpiperidin-4-yl]oxy}pyridazin-3-yl)-5-(1-methyl-1H-pyrazol-3-yl)pyridin-3-ol or 2-(6-{[(3S,4R)-3-fluoro-2,2,6,6-tetramethylpiperidin-4-yl]oxy}pyridazin-3-yl)-5-(1-methyl-1H-pyrazol-3-yl)pyridin-3-ol] has an IC50 of 100 to 500 nM.
For “2-(6-{[(3R,4S)-3-fluoro-2,2,6,6-tetramethylpiperidin-4-yl]oxy}pyridazin-3-yl)-5-(1H-pyrazol-4-yl)pyridin-3-ol and 2-(6-{[(3S,4R)-3-fluoro-2,2,6,6-tetramethylpiperidin-4-yl]oxy}pyridazin-3-yl)-5-(1H-pyrazol-4-yl)pyridin-3-ol [Compound 6]”, the IC50 was no more than 100 nM.
For `Cn1cc2cc(-c3cnc(-c4ccc(N5CC6CC5CN6)nn4)c(O)c3)cc(F)c2n1` (stereo not shown) [Compound 105, 2-[6-(2,5-diazabicyclo[2.2.1]heptan-2-yl)pyridazin-3-yl]-5-(7-fluoro-2-methyl-2H-indazol-5-yl)pyridin-3-ol], the IC50 was no more than 100 nM.
`[2H]C([2H])([2H])n1cc(-c2cnc(-c3ccc(OC4CC(C)(C)NC5(CC5)C4)nn3)c(O)c2)cn1` (stereo not shown) [Compound 75, 2-{6-[(5,5-dimethyl-4-azaspiro[2.5]octan-7-yl)oxy]pyridazin-3-yl}-5-[1-(^2H3)methyl-1H-pyrazol-4-yl]pyridin-3-ol] showed an IC50 of no more than 100 nM.
With `Cc1cn2cc(-c3cnc(-c4ccc(N5CCC6(CCN6)C5)nn4)c(O)c3)ccc2n1` (stereo not shown) [Compound 107, 2-[6-(1,6-diazaspiro[3.4]octan-6-yl)pyridazin-3-yl]-5-(2-methylimidazo[1,2-a]pyridin-6-yl)pyridin-3-ol] the IC50 was no more than 100 nM.
Work on “2-(6-{[(3R,4S)-3-fluoro-2,2,6,6-tetramethylpiperidin-4-yl]oxy}pyridazin-3-yl)-5-[2-methyl-8-(trifluoromethyl)imidazo[1,2-a]pyridin-6-yl]pyridin-3-ol and 2-(6-{[(3S,4R)-3-fluoro-2,2,6,6-tetramethylpiperidin-4-yl]oxy}pyridazin-3-yl)-5-[2-methyl-8-(trifluoromethyl)imidazo[1,2-a]pyridin-6-yl]pyridin-3-ol [Compound 46]” yielded an IC50 of 100 to 500 nM.
`CC1(C)CC(Oc2ccc(-c3ncc(-n4ccnc4)cc3O)nn2)CC(C)(C)N1` [Compound 5, 5-(1H-imidazol-1-yl)-2-{6-[(2,2,6,6-tetramethylpiperidin-4-yl)oxy]pyridazin-3-yl}pyridin-3-ol] showed an IC50 of no more than 100 nM.
Work on “2-{3-[(3R)-3-(tert-butylamino)pyrrolidin-1-yl]-1,2,4-triazin-6-yl}-5-(2,8-dimethylimidazo[1,2-b]pyridazin-6-yl)pyridin-3-ol [Compound 149]” yielded an IC50 of no more than 100 nM.
`CC1(C)CC(Oc2ccc(-c3ncc(-c4ccc5nccn5n4)cc3O)nn2)CC(C)(C)N1` [Compound 65, 5-(imidazo[1,2-b]pyridazin-6-yl)-2-{6-[(2,2,6,6-tetramethylpiperidin-4-yl)oxy]pyridazin-3-yl}pyridin-3-ol] showed an IC50 of no more than 100 nM.
With `C[C@@H]1CN(c2ccc(-c3ncc(-c4ccc5nn(C)cc5c4)cc3O)nn2)C[C@H](C)N1` [Compound 124, 2-{6-[(3R,5S)-3,5-dimethylpiperazin-1-yl]pyridazin-3-yl}-5-(2-methyl-2H-indazol-5-yl)pyridin-3-ol and 2-{6-[(3S,5R)-3,5-dimethylpiperazin-1-yl]pyridazin-3-yl}-5-(2-methyl-2H-indazol-5-yl)pyridin-3-ol] the IC50 was no more than 100 nM.
With “5-(8-ethyl-2-methylimidazo[1,2-b]pyridazin-6-yl)-2-(6-{[(3R,4S)-3-fluoro-2,2,6,6-tetramethylpiperidin-4-yl]oxy}pyridazin-3-yl)pyridin-3-ol and 5-(8-ethyl-2-methylimidazo[1,2-b]pyridazin-6-yl)-2-(6-{[(3S,4R)-3-fluoro-2,2,6,6-tetramethylpiperidin-4-yl]oxy}pyridazin-3-yl)pyridin-3-ol [Compound 60]” the IC50 was no more than 100 nM.
`COc1cc(-c2cnc(-c3ccc(OC4CC(C)(C)NC(C)(C)C4)nn3)c(O)c2)nn2cc(C)nc12` [Compound 81, 5-(8-methoxy-2-methylimidazo[1,2-b]pyridazin-6-yl)-2-{6-[(2,2,6,6-tetramethylpiperidin-4-yl)oxy]pyridazin-3-yl}pyridin-3-ol] was tested, and the IC50 was no more than 100 nM.
`COc1cc(-c2cnc(-c3cnc(N4CCN(C)CC4)nn3)c(O)c2)cc2cn(C)nc12` [Compound 150, 5-(7-methoxy-2-methyl-2H-indazol-5-yl)-2-[3-(4-methylpiperazin-1-yl)-1,2,4-triazin-6-yl]pyridin-3-ol] was tested, and the IC50 was no more than 100 nM.
`Oc1cc(-c2cn[nH]c2)cnc1-c1ccc(N2CCNC(C3CC3)C2)nn1` (stereo not shown) [Compound 123, 2-[6-(3-cyclopropylpiperazin-1-yl)pyridazin-3-yl]-5-(1H-pyrazol-4-yl)pyridin-3-ol] showed an IC50 of no more than 100 nM.
“5-[(6-methylpyridin-3-yl)amino]-2-{6-[(3R)-3-(propan-2-yl)piperazin-1-yl]pyridazin-3-yl}pyridin-3-ol and 5-[(6-methylpyridin-3-yl)amino]-2-{6-[(3S)-3-(propan-2-yl)piperazin-1-yl]pyridazin-3-yl}pyridin-3-ol [Compound 127]” gave an IC50 of no more than 100 nM.
Molecule `[2H]C([2H])([2H])n1cc(-c2cnc(-c3ccc(O[C@@H]4C[C@@H](C)NC5(CC5)C4)nn3)c(O)c2)cn1` [Compound 85, 2-(6-{[(5R,7R)-5-methyl-4-azaspiro[2.5]octan-7-yl]oxy}pyridazin-3-yl)-5-[1-(^2H3)methyl-1H-pyrazol-4-yl]pyridin-3-ol] has an IC50 of 500 to 1000 nM.
`CC1(C)CC(Oc2ccc(-c3ncc(-n4ccnn4)cc3O)nn2)CC(C)(C)N1` [Compound 63, 2-{6-[(2,2,6,6-tetramethylpiperidin-4-yl)oxy]pyridazin-3-yl}-5-(1H-1,2,3-triazol-1-yl)pyridin-3-ol] was tested, and the IC50 was 100 to 500 nM.
Molecule `[2H]C([2H])([2H])n1cc(-c2cnc(-c3ccc(N4CCN[C@@H](C5CC5)C4)nn3)c(O)c2)cn1` [Compound 129, 2-{6-[(3S)-3-cyclopropylpiperazin-1-yl]pyridazin-3-yl}-5-[1-(^2H3)methyl-1H-pyrazol-4-yl]pyridin-3-ol] has an IC50 of no more than 100 nM.
`Cn1cc2cc(-c3cnc(-c4ccc(N5CCN(C6CC6)CC5)nn4)c(O)c3)cc(F)c2n1` [Compound 100, 2-[6-(4-cyclopropylpiperazin-1-yl)pyridazin-3-yl]-5-(7-fluoro-2-methyl-2H-indazol-5-yl)pyridin-3-ol] showed an IC50 of 100 to 500 nM.
